These results are taken from US5434150A, “Condensed 5-membered heterocyclic compounds, processes for preparing them and pharmaceutical preparations containing these compounds” (Dr. Karl Thomae GmbH, priority 1991, dated 1995).

Where a name gives a salt, the structure may show the parent alone. Read-outs that look alike come from different tables or passages of the source.

For one assay, the target named is Human Thrombocytes. The assay can be described thus: Fibrinogen binding to human thrombocytes (fibrinogen binding test). The method, then:
1. Fibrinogen Binding to Human Thrombocytes The blood obtained by puncturing an antecubital vein is anticoagulated with trisodium citrate (final concentration: 13 mM) and centrifuged for 10 minutes at 170× g. The supernatant platelet-rich plasma is poured onto a Sepharose 2B column (Pharmacia) and eluted with a solution of 90 mM common salt, 14 mM trisodium citrate, 5 mM glucose and 50 mM tris(hydroxymethyl)aminomethane, adjusted to pH 7.4. The gel-filtered platelets (GFP) appearing before the plasma proteins are used for the binding experiments. 50 μl of a 60 mM calcium chloride solution, 50 μl of a 0.6 mM adenosine diphosphate solution, 100 μl of substance solution or solvent and 50 μl of fibrinogen solution (containing 3 μg of ^125 fibrinogen) are added to 750 μl of GFP and incubated for 20 minutes at ambient temperature. The non-specific binding is determined in the presence of 3 mg/ml of cold fibrinogen. 900 μl of the incubated material are carefully pipetted onto 250 μl of silicon oil (AP 38: AR 20, 1:2 v/v, Wacker Chemie) in Eppendorf tubes and centrifuged for 2 minutes at 10,000× g. The aqueous supernatant and some of the oil are drawn off, the tips of the tubes are cut off together with the platelet pellet and the quantity of bound fibrinogen is determined in a gamma counter. The concentration of substance which brings about a 50% inhibition in fibrinogen binding is determined from a series of concentrations and is given as the IC50 value. | *^125 I fibrogen was replaced by […] |e.

Assay [1] deals with platelet aggregation (platelet-rich plasma). The assay can be described thus: Antithrombotic activity: inhibition of collagen-induced platelet aggregation in platelet-rich plasma (Born and Cross). The class given is cell-based, human (healthy volunteers). The following applies: 50% change in optical density, human platelet-rich plasma, 10 min preincubation. On the procedure: 2. Antithrombotic Activity Method The thrombocyte aggregation is measured using the Born and Cross method (J. Physiol. 170:397 (1964)) in platelet-rich plasma taken from healthy volunteers. To inhibit coagulation the blood is mixed with 3.14% sodium citrate in a ratio by volume of 1:10. Collagen-induced aggregation The pattern of the decrease in optical density of the platelet suspension is photometrically measured and recorded after the addition of aggregation-triggering substance. The rate of aggregation is concluded from the angle of inclination of the density curve. The point on the curve where there is maximum light transmittance is used to calculate the optical density. The amount of collagen used is as small as possible but sufficient to produce an irreversible reaction curve. Standard commercial collagen produced by Hormonchemie of Munich is used. Before the addition of the collagen the plasma is incubated for 10 minutes with the substance at […]. From the measurements obtained an EC50 is determined graphically, indicating a 50% change in the optical density in terms of the inhibition of aggregation.

Setting [2] is: *: 125I fibrinogen replaced by 3H-(3S,5S)-5-[(amidino-biphenylyl)-oxymethyl]-carboxymethyl-pyrrolidinone ligand, read-out: Fibrinogen binding test IC50 (values marked *).
The mark [3] stands for this setting: 125I fibrinogen, 50% inhibition of fibrinogen binding, gel-filtered human platelets, ADP, 20 min ambient temperature, read-out: Fibrinogen binding test IC50.

In general, IC50 refers to the concentration at which inhibition is half-maximal. Usually EC50 stands for the concentration that produces a half-maximal response. Lower therefore signals higher potency in that assay.

Take `N=C(N)c1ccc(-c2nc3cc(C(=O)NCCC(=O)O)ccc3n2CCCN2CC[S+]([O-])CC2)cc1` [1(74), 2-(4-amidino-phenyl)-5-[(2-carboxy-ethyl)-aminocarbonyl]-1-[3-(S-oxido-thiomorpholino)-propyl]-benzimidazole]: on Human Thrombocytes (setting [2]), the concentration for half-maximal inhibition (IC50) is 120 nM. For the same molecule, the midpoint of the response in assay [1], the EC50, lay at 310 nM.
Turning to `Cn1c(-c2ccc(C(=N)N)cc2)nc2cc(C(=O)N3CCCC(C(=O)O)C3)ccc21` (centres unmarked) [17(10), 2-(4-amidino-phenyl)-5-[(3-carboxy-piperidino)-carbonyl]-1-methyl-benzimidazole-dihydrobromide], the IC50 at Human Thrombocytes (setting [3]) stood at 26000 nM. This molecule showed an EC50 in assay [1] of 27000 nM.
On the same counts, the results for `COC(=O)CCNC(=O)c1ccc2c(c1)nc(-c1ccc(CN)cc1)n2CCCN` [Example 6, 2-(4-Aminomethyl-phenyl)-1-(3-amino-propyl)-5-[(2-methoxycarbonyl-ethyl)-aminocarbonyl]-benzimidazole] are 4000 nM and 3700 nM.
In the case of `CCCCCCCCCCCCCCn1c(-c2ccc(C(=N)N)cc2)nc2cc(C(=O)NCCC(=O)O)ccc21` [17(6), 2-(4-amidino-phenyl)-5-[(2-carboxy-ethyl)-aminocarbonyl]-1-n-tetradecyl-benzimidazole-dihydrobromide], at Human Thrombocytes (setting [2]), the IC50 stood at 1800 nM. The same molecule had an EC50 in assay [1] of 30000 nM.
On the same counts, the results for `COC(=O)CCNC(=O)c1ccc2c(c1)nc(-c1ccc(C(=N)N)cc1)n2CCCC(=O)O` [3(121), 2-(4-amidino-phenyl)-1-(3-carboxy-propyl)-5-[(2-methoxycarbonyl-ethyl)-aminocarbonyl]-benzimidazole] are 15000 nM and 13000 nM.
On the same counts, the results for `CCCCCCCCCCCCCCn1c(-c2ccc(C(=N)N)cc2)nc2cc(C(=O)NCCC(=O)OC)ccc21` [3(119), 2-(4-amidino-phenyl)-5-[(2-methoxycarbonyl-ethyl)-aminocarbonyl]-1-n-tetradecyl-benzimidazole] are 4600 nM and 39000 nM.
Turning to `COC(=O)CCNC(=O)c1cnc2c(c1)nc(-c1ccc(C(=N)N)cc1)n2C` [3(19), 2-(4-amidino-phenyl)-6-[(2-methoxycarbonyl-ethyl)-aminocarbonyl]-3-methyl-imidazo[4,5-b]pyridine], the IC50 on Human Thrombocytes (setting [2]) was 280 nM. Moreover, the EC50 in assay [1] was 330 nM.
For `N=C(N)c1ccc(-c2nc3cc(C(=O)NCCC(=O)O)ccc3n2CCC(c2ccccc2)c2ccccc2)cc1` [17(9), 2-(4-amidino-phenyl)-5-[(2-carboxy-ethyl)-aminocarbonyl]-1-(3,3-diphenyl-propyl)-benzimidazole-dihydrobromide], the IC50 on Human Thrombocytes (setting [2]) was determined as 9.5 nM. Further, in assay [1], the EC50 is 1140 nM.
On to `N=C(N)c1ccc(-c2nc3cc(C(=O)NCCC(=O)O)ccc3n2CCCN2CCS(=O)(=O)CC2)cc1` [1(75), 2-(4-amidino-phenyl)-5-[(2-carboxy-ethyl)-aminocarbonyl]-1-[3-(S,S-dioxido-thiomorpholino)-propyl]-benzimidazole], for which the IC50 on Human Thrombocytes (setting [2]) was found to be 230 nM. In assay [1], a half-maximal effect (EC50) was put at 1100 nM.
Take `COC(=O)CCNC(=O)c1ccc2[nH]c(-c3ccc(C(=N)N)cc3)nc2c1` [15(1), 2-(4-amidino-phenyl)-5(6)-[(2-methoxycarbonyl-ethyl)-aminocarbonyl]-benzimidazole-hydrochloride]: the half-maximal inhibitory concentration (IC50) on Human Thrombocytes (setting [2]) amounted to 2500 nM. Moreover, the response in assay [1] was half-maximal at 4100 nM (EC50).
For `COC(=O)CCNC(=O)c1cc2nc(-c3ccc(C(=N)N)cc3)n(C)c2cc1N(C)C(=O)OCC(C)C` [3(130), 2-(4-amidino-phenyl)-6-(N-isobutyloxycarbonyl-N-methyl-amino)-5-[(2-methoxycarbonyl-ethyl)-aminocarbonyl]-1-methyl-benzimidazole], the IC50 at Human Thrombocytes (setting [3]) is 14000 nM. In assay [1], this molecule had a concentration for a half-maximal effect (EC50) of 160 nM.
For `N=C(N)c1ccc(-c2nc3cc(C(=O)NCCC(=O)OC4CCCCC4)ccc3n2CCCCc2ccccc2)cc1` [13(3), 2-(4-amidino-phenyl)-5-[(2-cyclohexyloxycarbonyl-ethyl)-aminocarbonyl]-1-(4-phenyl-butyl)-benzimidazole dihydrochloride], on Human Thrombocytes (setting [2]), the IC50 came out at 1400 nM. The molecule further had an EC50 in assay [1] of 4300 nM.
On the same counts, the results for `COC(=O)CCNC(=O)c1ccc2c(c1)nc(-c1ccc(C(=N)N)cc1)n2Cc1cccnc1` [3(52), 2-(4-amidino-phenyl)-5-[(2-methoxycarbonyl-ethyl)-aminocarbonyl]-1-(3-pyridylmethyl)-benzimidazole] are 4800 nM and 9500 nM.
Take `COC(=O)CCNC(=O)c1ccc2c(c1)nc(-c1ccc(C(=N)N)cc1)n2CCC(c1ccccc1)c1ccccc1` [3(126), 2-(4-amidino-phenyl)-1-(3,3-diphenyl-propyl)-5-[(2-methoxycarbonyl-ethyl)-aminocarbonyl]-benzimidazole]: the concentration for half-maximal inhibition (IC50) on Human Thrombocytes (setting [3]) was found to be 2200 nM. Further, in assay [1], the midpoint of the response, the EC50, lay at 9900 nM.
For `Cn1c(-c2ccc(CN)cc2)nc2cc(C(=O)NCCC(=O)O)ccc21` [17(1), 2-(4-aminomethyl-phenyl)-5-[(2-carboxy-ethyl)-aminocarbonyl]-1-methyl-benzimidazole-dihydrobromide], at Human Thrombocytes (setting [3]), the IC50 turned out to be 700 nM. This molecule came in with an EC50 in assay [1] of 1530 nM.
On to `COC(=O)CCNC(=O)c1ccc2c(c1)nc(-c1ccc(C(=N)N)cc1)n2CCCN1CCS(=O)(=O)CC1` [5(6), 2-(4-amidino-phenyl)-1-[3-(S,S-dioxido-thiomorpholino)-propyl]-5-[(2-methoxycarbonyl-ethyl)-aminocarbonyl]-benzimidazole-hydrochloride], for which, on Human Thrombocytes (setting [2]), the IC50 came to 5500 nM. This molecule showed an EC50 in assay [1] of 18000 nM.
For `NCCCn1c(-c2ccc(CN)cc2)nc2cc(C(=O)NCCC(=O)O)ccc21` [Example 17, 2-(4-Aminomethyl-phenyl)-1-(3-amino-propyl)-5-[(2-carboxy-ethyl)-aminocarbonyl]-benzimidazole-hydrogen acetate], the IC50 at Human Thrombocytes (setting [3]) was found to be 1000 nM. Also, the EC50 in assay [1] was 3800 nM.
In the case of `N=C(N)c1ccc(-c2nc3cc(C(=O)NCCC(=O)O)ccc3[nH]2)cc1` [1(2), 2-(4-amidino-phenyl)-5(6)-[(2-carboxy-ethyl)-aminocarbonyl]-benzimidazole-hydrochloride], the IC50 at Human Thrombocytes (setting [2]) amounted to 720 nM. The molecule also gave an EC50 in assay [1] of 3300 nM.
Consider `CCCCCCCCCCCCCCn1c(-c2ccc(CN)cc2)nc2cc(C(=O)NCCC(=O)O)ccc21` [17(4), 2-(4-aminomethyl-phenyl)-5-[(2-carboxy-ethyl)-aminocarbonyl]-1-n-tetradecyl-benzimidazole-dihydrobromide], for which the concentration for half-maximal inhibition (IC50) on Human Thrombocytes (setting [2]) worked out at 1900 nM. The EC50 in assay [1] was more than 100000 nM.
Consider `Cn1c(-c2ccc(C(=N)N)cc2)[n+]([O-])c2cc(C(=O)NCCC(=O)O)ccc21` [1(79), 2-(4-amidino-phenyl)-5-[(2-carboxy-ethyl)-aminocarbonyl]-1-methyl-benzimidazole-3-oxide], for which the IC50 on Human Thrombocytes (setting [3]) amounted to 41 nM. In addition, the response in assay [1] was half-maximal at 80 nM (EC50).
Take `Cn1c(-c2ccc(C(=N)N)cc2)nc2c(=O)n(CCCCC(=O)O)c(=O)n(C)c21` [1(160), 8-(4-amidino-phenyl)-1-(4-carboxy-butyl)-3,9-dimethyl-xanthine]: the half-inhibitory concentration (IC50) on Human Thrombocytes (setting [2]) was 7.5 nM. For the same molecule, the EC50 in assay [1] was 70 nM.
As to `N=C(N)c1ccc(-c2nc3cc(C(=O)NCCC(=O)O)ccc3n2CCN2CCN(Cc3ccccc3)CC2)cc1` [1(136), 2-(4-amidino-phenyl)-1-[2-(4-benzyl-piperazino)-ethyl]-5-[(2-carboxy-ethyl)-aminocarbonyl]-benzimidazole], the IC50 on Human Thrombocytes (setting [3]) came to 30 nM. This molecule showed a 50% effective concentration (EC50) in assay [1] of 80 nM.
Turning to `NCc1ccc(-c2nc3cc(C(=O)NCCC(=O)O)ccc3n2CCCN2CCSCC2)cc1` [1(137), 2-(4-aminomethyl-phenyl)-5-[(2-carboxy-ethyl)-aminocarbonyl]-1-(3-thiomorpholino-propyl)-benzimidazole], the IC50 on Human Thrombocytes (setting [2]) was found to be 1800 nM. For the same molecule, a half-maximal response in assay [1] (EC50) required 7000 nM.
`Cn1c(-c2ccc(C(=N)N)cc2)nc2cc(C(=O)NCCCC(=O)O)ccc21` [Example 1, 2-(4-Amidino-phenyl)-5-[(3-carboxy-propyl)-aminocarbonyl]-1-methyl-benzimidazole]: on Human Thrombocytes (setting [3]), the IC50 came out at 33000 nM. Further, the EC50 in assay [1] was determined as 27000 nM.
Regarding `COc1ccc(CCn2c(-c3ccc(C(=N)N)cc3)nc3cc(C(=O)NCCC(=O)O)ccc32)cc1OC` [17(2), 2-(4-amidino-phenyl)-5-[(2-carboxy-ethyl)-aminocarbonyl]-1-[2-(3,4-dimethoxy-phenyl)-ethyl]-benzimidazole-dihydrobromide], the IC50 on Human Thrombocytes (setting [2]) worked out at 22 nM. The molecule also had an EC50 in assay [1] of 80 nM.
